Key:
Format in all cases: in vitro ADME
[1] = molecular target: T1, UGT1A1 (Homo sapiens, UniProt P22309); assay: Glucuronidation assay, UGT1A1-over-expressing HEK293 cell homogenate
T1 sequence (P22309 26-533): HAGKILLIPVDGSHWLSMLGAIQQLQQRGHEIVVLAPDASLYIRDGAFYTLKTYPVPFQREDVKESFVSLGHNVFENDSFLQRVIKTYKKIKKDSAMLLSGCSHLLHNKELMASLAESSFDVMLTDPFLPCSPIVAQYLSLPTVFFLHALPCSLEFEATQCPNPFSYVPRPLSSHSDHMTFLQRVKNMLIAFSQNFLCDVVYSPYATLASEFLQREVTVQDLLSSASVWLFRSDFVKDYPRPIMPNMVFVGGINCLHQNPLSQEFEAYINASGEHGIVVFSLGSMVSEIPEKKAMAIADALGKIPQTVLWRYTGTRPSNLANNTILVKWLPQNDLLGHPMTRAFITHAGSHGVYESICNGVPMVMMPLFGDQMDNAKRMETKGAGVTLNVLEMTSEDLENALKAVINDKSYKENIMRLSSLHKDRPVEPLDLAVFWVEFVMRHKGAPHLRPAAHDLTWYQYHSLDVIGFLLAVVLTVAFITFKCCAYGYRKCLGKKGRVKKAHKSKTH

[2] = molecular target: T2, UGT1A8 (Homo sapiens, UniProt Q9HAW9); assay: Glucuronidation assay, UGT1A8-over-expressing HEK293 cell homogenate
T2 sequence (Q9HAW9 26-530): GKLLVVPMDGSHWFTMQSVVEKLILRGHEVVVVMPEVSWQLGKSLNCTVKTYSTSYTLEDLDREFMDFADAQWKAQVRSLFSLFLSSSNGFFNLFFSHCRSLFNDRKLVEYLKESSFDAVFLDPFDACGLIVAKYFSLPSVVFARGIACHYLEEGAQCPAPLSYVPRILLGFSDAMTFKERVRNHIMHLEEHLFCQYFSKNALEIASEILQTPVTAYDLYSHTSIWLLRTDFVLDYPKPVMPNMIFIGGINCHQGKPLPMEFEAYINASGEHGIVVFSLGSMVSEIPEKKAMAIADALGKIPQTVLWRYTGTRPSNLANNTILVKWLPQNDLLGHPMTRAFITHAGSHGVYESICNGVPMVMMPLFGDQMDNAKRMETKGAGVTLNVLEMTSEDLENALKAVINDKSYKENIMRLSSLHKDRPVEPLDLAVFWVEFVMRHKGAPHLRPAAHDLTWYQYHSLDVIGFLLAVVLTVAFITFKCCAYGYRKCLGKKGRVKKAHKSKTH

[3] = molecular target: T3, UGT1A9 (Homo sapiens, UniProt O60656); assay: Glucuronidation assay, UGT1A9-over-expressing HEK293 cell homogenate
T3 sequence (O60656 26-530): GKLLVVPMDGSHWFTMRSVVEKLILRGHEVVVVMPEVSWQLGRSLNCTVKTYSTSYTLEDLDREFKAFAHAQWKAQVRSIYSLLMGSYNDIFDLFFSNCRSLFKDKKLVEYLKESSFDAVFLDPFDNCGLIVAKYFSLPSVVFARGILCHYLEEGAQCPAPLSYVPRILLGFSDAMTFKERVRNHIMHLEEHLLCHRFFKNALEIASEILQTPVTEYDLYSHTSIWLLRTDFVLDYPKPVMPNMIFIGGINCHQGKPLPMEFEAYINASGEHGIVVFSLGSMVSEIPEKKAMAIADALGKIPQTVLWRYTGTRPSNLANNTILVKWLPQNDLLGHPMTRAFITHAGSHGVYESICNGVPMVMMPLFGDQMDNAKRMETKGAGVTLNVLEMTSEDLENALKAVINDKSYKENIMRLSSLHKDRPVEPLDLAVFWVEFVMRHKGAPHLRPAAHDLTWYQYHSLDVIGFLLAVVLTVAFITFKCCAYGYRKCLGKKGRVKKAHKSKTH

[4] = molecular target: T4, UGT1A7 (Homo sapiens, UniProt Q9HAW7); assay: Glucuronidation assay, UGT1A7-over-expressing HEK293 cell homogenate
T4 sequence (Q9HAW7 26-530): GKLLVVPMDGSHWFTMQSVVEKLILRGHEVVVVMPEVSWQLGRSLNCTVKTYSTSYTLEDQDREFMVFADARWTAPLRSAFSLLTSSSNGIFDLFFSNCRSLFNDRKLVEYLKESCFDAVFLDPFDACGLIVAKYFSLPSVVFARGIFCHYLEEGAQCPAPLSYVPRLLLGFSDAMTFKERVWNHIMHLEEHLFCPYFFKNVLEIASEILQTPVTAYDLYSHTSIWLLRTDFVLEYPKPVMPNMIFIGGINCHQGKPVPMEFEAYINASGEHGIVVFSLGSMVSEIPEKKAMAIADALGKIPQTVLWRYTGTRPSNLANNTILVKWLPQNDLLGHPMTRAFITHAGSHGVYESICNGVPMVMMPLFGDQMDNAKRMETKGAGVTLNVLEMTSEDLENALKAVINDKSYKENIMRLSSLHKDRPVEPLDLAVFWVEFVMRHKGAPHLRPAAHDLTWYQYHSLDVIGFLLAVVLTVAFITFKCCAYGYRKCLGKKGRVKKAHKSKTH

[5] = molecular target: T5, UGT1A10 (Homo sapiens, UniProt Q9HAW8); assay: Glucuronidation assay, UGT1A10-over-expressing HEK293 cell homogenate
T5 sequence (Q9HAW8 26-530): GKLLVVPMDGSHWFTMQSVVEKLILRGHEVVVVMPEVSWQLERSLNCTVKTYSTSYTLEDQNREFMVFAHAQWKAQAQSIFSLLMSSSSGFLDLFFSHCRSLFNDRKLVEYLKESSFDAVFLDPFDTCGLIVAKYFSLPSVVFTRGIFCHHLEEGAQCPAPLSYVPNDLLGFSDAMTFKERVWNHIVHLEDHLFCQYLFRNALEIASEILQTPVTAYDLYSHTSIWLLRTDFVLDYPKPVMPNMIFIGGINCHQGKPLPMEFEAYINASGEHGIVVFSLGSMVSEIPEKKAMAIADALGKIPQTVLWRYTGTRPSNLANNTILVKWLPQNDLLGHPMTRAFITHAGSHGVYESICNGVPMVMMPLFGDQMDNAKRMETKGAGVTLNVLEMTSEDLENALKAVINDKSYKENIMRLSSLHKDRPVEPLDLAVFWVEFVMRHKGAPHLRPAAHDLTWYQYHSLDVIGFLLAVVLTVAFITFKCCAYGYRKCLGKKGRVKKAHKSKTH

[6] = molecular target: T6, UGT2B7 (Homo sapiens, UniProt P16662); assay: Glucuronidation assay, UGT2B7-over-expressing HEK293 cell homogenate
T6 sequence (P16662 24-529): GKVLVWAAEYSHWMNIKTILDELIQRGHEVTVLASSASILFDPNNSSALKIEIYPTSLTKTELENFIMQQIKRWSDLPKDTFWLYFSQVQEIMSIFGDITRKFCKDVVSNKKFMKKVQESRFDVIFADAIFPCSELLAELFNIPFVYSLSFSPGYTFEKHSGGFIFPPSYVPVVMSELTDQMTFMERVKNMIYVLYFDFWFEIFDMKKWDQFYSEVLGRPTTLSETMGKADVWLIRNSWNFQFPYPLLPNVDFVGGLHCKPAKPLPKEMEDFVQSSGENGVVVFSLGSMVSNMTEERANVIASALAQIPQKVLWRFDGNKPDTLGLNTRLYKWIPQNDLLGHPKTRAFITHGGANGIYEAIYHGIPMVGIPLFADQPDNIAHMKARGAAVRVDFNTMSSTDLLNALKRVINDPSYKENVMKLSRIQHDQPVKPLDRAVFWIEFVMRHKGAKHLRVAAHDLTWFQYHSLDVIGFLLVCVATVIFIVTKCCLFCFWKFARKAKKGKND

[7] = glucuronide formation from the respective diol enantiomer

Km [1]: 76 ± 21 µM | ratio of (+)-DB[a,l]P-11-Gluc : (+)-DB[a,l]P-12-Gluc : (−)-DB[a,l]P-11-Gluc formation [1]: 52 | kcat/Km [1, 7]: 102 ± 25 M⁻¹ s⁻¹ | Km [2]: 194 ± 39 µM | ratio of (+)-DB[a,l]P-11-Gluc : (−)-DB[a,l]P-11-Gluc formation [2]: 48 | kcat/Km [2, 7]: 13.3 ± 2 M⁻¹ s⁻¹ | Km [3]: 0.17 ± 0.01 µM | ratio of (+)-DB[a,l]P-11-Gluc : (−)-DB[a,l]P-11-Gluc formation [3]: 30 | fold higher activity (kcat/KM) of UGT1A9 than UGT1A1 ([3]; comparing kcat/KM values): approximately 489 fold | kcat/Km [3, 7]: 49670 ± 2430 M⁻¹ s⁻¹ | Km [4]: 43 ± 7 µM | ratio of (+)-DB[a,l]P-11-Gluc : (−)-DB[a,l]P-11-Gluc formation [4]: 67 | kcat/Km [4, 7]: 3.83 ± 1.83 M⁻¹ s⁻¹ | Km [5]: 33 ± 9.8 µM | ratio of (+)-DB[a,l]P-11-Gluc : (+)-DB[a,l]P-12-Gluc : (−)-DB[a,l]P-11-Gluc formation [5]: 19 | fold higher activity (kcat/KM) of UGT1A10 compared to UGTs 1A7 and 1A8 ([5]; comparing kcat/KM values): 12–72 fold | kcat/Km [5, 7]: 158 ± 33.3 M⁻¹ s⁻¹ | Km [6]: 175 ± 25 µM | kcat/Km [6, 7]: 6.33 ± 0.17 M⁻¹ s⁻¹
Compound: O=C(O)[C@H]1O[C@@H](O[C@H]2c3cc4ccc5cccc6c7ccccc7c(c3C=C[C@@H]2O)c4c56)[C@H](O)[C@@H](O)[C@@H]1O (relative stereo) [(+)-DB[a,l]P-11-Gluc, DB[a,l]P-(+)-trans-11-Gluc,12-ol]

Source: article PMC3177992 (Chemical research in toxicology, 2011)
